For eleven molecules, inhibition in vivo results are on record in US8592579B2, “Pyrrolotriazine kinase inhibitors” (Bristol-Myers Squibb Company, priority 2006, dated 2013).

One test relates to IGF1R-Sal tumors. The test is described as follows: IGF-1R Sal Tumor Model. It is filed as in vivo, nude mice. Conditions: Mus musculus, 96 h, 6.25 mpk, qd, oral, 4 consecutive days, read-out: IGF-1R Sal % TGI.
Protocol: A salivary gland adenocarcinoma that developed spontaneously in a transgenic mouse (MCI-19) was excised and cut into fragments of about 20 mg. Tumor fragments were implanted s.c. into the ventral thoracic region of a group of six female, athymic BALB/c nu/nu mice (Harley Sprague-Dawley, Indianapolis, Ind.), using a 13-gauge trocar. Once established, the salivary gland-derived tumor line was designated IGF 1R-Sal and was propagated as a tumor xenograft in nude mice. Tumors were passaged every 2 weeks, at which time the tumor reached f500 to 1,000 mm3 in size. […] Compounds were administered either on a bid schedule (oral doses 8 hours apart) or on a once a day schedule orally (qd) for 4 consecutive days. Tumors were measured at the start and end of treatment. Activity was measured as % tumor growth inhibition (% TGI). The % TGI was determined using the following formula (Ct−Tt)/(Ct−Co) where Ct is defined as the median tumor size of the control group at the end of treatment, Co is defined as the median tumor size of the control group at the start of treatment, and Tt is defined as the median tumor size of the treated group at the end of treatment.
As to `CNC(=O)[C@@H]1CCCN1c1nc(Nc2cc(C3CC3)[nH]n2)c2cccn2n1` [Example 3, (S)-1-(4-(5-cyclopropyl-1H-pyrazol-3-ylamino)pyrrolo[1,2-f][1,2,4]triazin-2-yl)-N-methylpyrrolidine-2-carboxamide], the inhibition in vivo at 6.25 mg/kg worked out at 80%.

The test is the same for the next values; noted with them: Mus musculus, 96 h, 25 mpk, bid, oral, 4 consecutive days, read-out: IGF-1R Sal % TGI.
For `Cc1cc(NC(=O)[C@]2(C)CCCN2c2nc(Nc3cc(C4CC4)[nH]n3)c3cccn3n2)n[nH]1` [Example 135], the inhibition in vivo at 25 mg/kg stood at 25%.
For `C[C@@]1(C(=O)Nc2cccnc2)CCCN1c1nc(Nc2cc(C3CC3)[nH]n2)c2cccn2n1` [Example 68], the inhibition in vivo at 25 mg/kg came out at 76%.
Turning to `O=C(Nc1nccs1)[C@@H]1C[C@@H](F)CN1c1nc(Nc2cc(C3CC3)[nH]n2)c2cccn2n1` [Example 198, (2S,4R)-1-(4-(5-cyclopropyl-1H-pyrazol-3-ylamino)pyrrolo[1,2-f][1,2,4]triazin-2-yl)-4-fluoro-N-(thiazol-2-yl)pyrrolidine-2-carboxamide], the inhibition in vivo at 25 mg/kg was 124%.
As to `CC1(c2cc(Nc3nc(N4CCC[C@H]4C(=O)N[C@@H]4CCCNC4)nn4cccc34)n[nH]2)CC1` [Example 194, (S)-1-(4-(5-(1-methylcyclopropyl)-1H-pyrazol-3-ylamino)pyrrolo[1,2-f][1,2,4]triazin-2-yl)-N-((R)-piperidin-3-yl)pyrrolidine-2-carboxamide], the inhibition in vivo at 25 mg/kg is 52%.
On the same count and under the same terms, the same measure for `O=C(Nc1ccc(F)nc1)[C@@H]1C[C@@H](O)CN1c1nc(Nc2cc(C3CC3)[nH]n2)c2cccn2n1` [Example 217, (2S,4R)-1-(4-(5-cyclopropyl-1H-pyrazol-3-ylamino)pyrrolo[1,2-f][1,2,4]triazin-2-yl)-N-(6-fluoropyridin-3-yl)-4-hydroxypyrrolidine-2-carboxamide]: 0%.
On the same count and under the same terms, next, `Cc1cc(Nc2nc(N3CCC[C@@]3(C)C(=O)Nc3cccnc3)nn3cccc23)n[nH]1` [Example 85]: 76%.
The same measure, in the same setting: next, `CC(C)n1cnc(Nc2nc(N3CCC[C@H]3C(=O)NC3CCCN(C)C3)nn3cccc23)c1` (stereo partly drawn) [Example 236, (S)-1-(4-(1-Isopropyl-1H-imidazol-4-ylamino)pyrrolo[1,2-f][1,2,4]triazin-2-yl)-N-((R)-1-methylpiperidin-3-yl)pyrrolidine-2-carboxamide]: 113%.

The test is the same for the next values; noted with them: Mus musculus, 96 h, 50 mpk, qd, oral, 4 consecutive days, read-out: IGF-1R Sal % TGI.
On to `O=C(Nc1cnccn1)[C@@H]1C[C@@H](F)CN1c1nc(Nc2cc(C3CC3)[nH]n2)c2cccn2n1` [Example 206], for which the inhibition in vivo at 50 mg/kg is 111%.
On the same count and under the same terms, the same measure for `CC(C)n1cnc(Nc2nc(N3C[C@@H](O)C[C@H]3C(=O)Nc3cnccn3)nn3cccc23)c1` [Example 245, (2S,4S)-4-hydroxy-1-(4-(1-isopropyl-1H-imidazol-4-ylamino)pyrrolo[L2-f][1,2,4]triazin-2-yl)-N-(pyrazin-2-yl)pyrrolidine-2-carboxamide]: 112%; for `C[C@@]1(C(=O)Nc2cnccn2)C[C@H](O)CN1c1nc(Nc2cc(C3CC3)[nH]n2)c2cccn2n1` [Example 227, (2S,4S)-1-(4-(5-cyclopropyl-1H-pyrazol-3-ylamino)pyrrolo[1,2-f][1,2,4]triazin-2-yl)-4-hydroxy-2-methyl-N-(pyrazin-2-yl)pyrrolidine-2-carboxamide]: 115%.
